Reference: ChEMBL document CHEMBL3045235, “Synthesis of aspirin eugenol ester and its biological activity” (Med Chem Res, 2012)

How the values were obtained:
Rattus norvegicus [1] = assay: Antipyretic activity against yeast-induced hyperthermia in Rattus norvegicus (rat) assessed as change in body temperature at 1.5 mmol/kg after 6 hr; format: functional, organism-based
Rattus norvegicus [2] = assay: Antipyretic activity against yeast-induced hyperthermia in Rattus norvegicus (rat) assessed as change in body temperature at 1.5 mmol/kg after 2 hr; format: functional, organism-based
Rattus norvegicus [3] = assay: Antipyretic activity against yeast-induced hyperthermia in Rattus norvegicus (rat) assessed as change in body temperature at 1.5 mmol/kg after 4 hr; format: functional, organism-based
Mus musculus [4] = assay: Analgesic activity in Mus musculus (mouse) assessed as pain threshold at 1.1 mmol/kg, ig after 120 min by hot plate test (reference value: 19.06 +/- 4.55 sec); format: functional
Mus musculus [5] = assay: Analgesic activity in Mus musculus (mouse) assessed as pain threshold at 1.1 mmol/kg, ig after 180 min by hot plate test (reference value: 17.67 +/- 5.78 sec); format: functional
Mus musculus [6] = assay: Analgesic activity in Mus musculus (mouse) assessed as pain threshold at 1.1 mmol/kg, ig after 60 min by hot plate test (reference value: 21.28 +/- 3 sec); format: functional
Mus musculus [7] = assay: Analgesic activity in Mus musculus (mouse) assessed as pain threshold at 1.1 mmol/kg, ig after 30 min by hot plate test (reference value: 24.88 +/- 5.28 sec); format: functional
[8] = Toxicity in ig dosed Mus musculus (mouse); format: organism-based; conditions: in vivo, po
Mus musculus [9] = assay: Anti-inflammatory activity against xylene-induced ear swelling Mus musculus (mouse) model as suppression of ear swelling at 1.11 mmol/kg, ig measured 1 hr after xylene challenge; format: functional; conditions: po
Mus musculus [10] = assay: Toxicity in ig dosed Mus musculus (mouse) assessed as effect on kidney after 7 days; format: organism-based; conditions: in vivo, po, 168 h
Mus musculus [11] = assay: Toxicity in ig dosed Mus musculus (mouse) assessed as effect on liver after 7 days; format: organism-based; conditions: in vivo, po, 168 h
Mus musculus [12] = assay: Toxicity in ig dosed Mus musculus (mouse) assessed as effect on spleen after 7 days; format: organism-based; conditions: in vivo, po, 168 h
Mus musculus [13] = assay: Toxicity in ig dosed Mus musculus (mouse) assessed as effect on heart after 7 days; format: organism-based; conditions: in vivo, po, 168 h
Mus musculus [14] = assay: Toxicity in ig dosed Mus musculus (mouse) assessed as effect on spleen measured post autopsy; format: organism-based; conditions: in vivo, po
Mus musculus [15] = assay: Toxicity in ig dosed Mus musculus (mouse) assessed as effect on kidney measured post autopsy; format: organism-based; conditions: in vivo, po
Mus musculus [16] = assay: Toxicity in ig dosed Mus musculus (mouse) assessed as effect on liver measured post autopsy; format: organism-based; conditions: in vivo, po
Mus musculus [17] = assay: Toxicity in ig dosed Mus musculus (mouse) assessed as mortality within 24 hr; format: organism-based; conditions: in vivo, po
Mus musculus [18] = assay: Toxicity in ig dosed Mus musculus (mouse) assessed as effect on heart measured post autopsy; format: organism-based; conditions: in vivo, po
Rattus norvegicus [19] = assay: Antipyretic activity against yeast-induced hyperthermia in Rattus norvegicus (rat) assessed as change in body temperature at 1 mmol/kg after 6 hr; format: functional, organism-based
Rattus norvegicus [20] = assay: Antipyretic activity against yeast-induced hyperthermia in Rattus norvegicus (rat) assessed as change in body temperature at 1 mmol/kg after 4 hr; format: functional, organism-based
Rattus norvegicus [21] = assay: Antipyretic activity against yeast-induced hyperthermia in Rattus norvegicus (rat) assessed as change in body temperature at 1 mmol/kg after 2 hr; format: functional, organism-based
Rattus norvegicus [22] = assay: Antipyretic activity against yeast-induced hyperthermia in Rattus norvegicus (rat) assessed as change in body temperature at 2 mmol/kg after 6 hr; format: functional, organism-based
Rattus norvegicus [23] = assay: Antipyretic activity against yeast-induced hyperthermia in Rattus norvegicus (rat) assessed as change in body temperature at 2 mmol/kg after 4 hr; format: functional, organism-based
Rattus norvegicus [24] = assay: Antipyretic activity against yeast-induced hyperthermia in Rattus norvegicus (rat) assessed as change in body temperature at 2 mmol/kg after 2 hr; format: functional, organism-based
Mus musculus [25] = assay: Analgesic activity in Mus musculus (mouse) assessed as pain threshold at 0.56 mmol/kg, ig after 180 min by hot plate test (reference value: 17.67 +/- 5.78 sec); format: functional
Mus musculus [26] = assay: Analgesic activity in Mus musculus (mouse) assessed as pain threshold at 0.56 mmol/kg, ig after 120 min by hot plate test (reference value: 19.06 +/- 4.55 sec); format: functional
Mus musculus [27] = assay: Analgesic activity in Mus musculus (mouse) assessed as pain threshold at 0.56 mmol/kg, ig after 60 min by hot plate test (reference value: 21.28 +/- 3 sec); format: functional
Mus musculus [28] = assay: Analgesic activity in Mus musculus (mouse) assessed as pain threshold at 0.56 mmol/kg, ig after 30 min by hot plate test (reference value: 24.88 +/- 5.28 sec); format: functional
Mus musculus [29] = assay: Anti-inflammatory activity against xylene-induced ear swelling Mus musculus (mouse) model as suppression of ear swelling at 0.56 mmol/kg, ig measured 1 hr after xylene challenge; format: functional; conditions: po

Row | SMILES | deltaT (Rattus norvegicus [1]) [°C] | deltaT (Rattus norvegicus [2]) [°C] | deltaT (Rattus norvegicus [3]) [°C] | Time (Mus musculus [4]) [s] | Time (Mus musculus [5]) [s] | Time (Mus musculus [6]) [s] | Time (Mus musculus [7]) [s] | LD50 [8] [mg/kg] | inhibition in vivo at 1110 µmol/kg (Mus musculus [9]) [%] | other results
1 | C=CCc1ccc(O)c(OC)c1 [EUGENOL] | -1.21 | -0.94 | -1.11 | 24.86 | 25.5 | 28.01 | 30.76 | 3000 | 32.9 | –
2 | C=CCc1ccc(OC(=O)c2ccccc2OC(C)=O)c(OC)c1 [ASPIRIN EUGENOL ESTER] | -1.45 | -1.14 | -1.4 | 28.74 | 29.69 | 28.8 | 29.5 | 10900 | 45.9 | Activity (Mus musculus [10]): Non-toxic; Activity (Mus musculus [11]): Non-toxic; Activity (Mus musculus [12]): Non-toxic; Activity (Mus musculus [13]): Non-toxic; Activity (Mus musculus [14]): Non-toxic; Activity (Mus musculus [15]): Non-toxic; Activity (Mus musculus [16]): Non-toxic; Activity (Mus musculus [17]): Toxic; Activity (Mus musculus [18]): Non-toxic; deltaT (Rattus norvegicus [19]): -1.32 °C; deltaT (Rattus norvegicus [20]): -1.29 °C; deltaT (Rattus norvegicus [21]): -1.2 °C; deltaT (Rattus norvegicus [22]): -2.49 °C; deltaT (Rattus norvegicus [23]): -2.46 °C; deltaT (Rattus norvegicus [24]): -2.09 °C; Time (Mus musculus [25]): 29.13 s; Time (Mus musculus [26]): 26.85 s; Time (Mus musculus [27]): 28.81 s; Time (Mus musculus [28]): 24.45 s; inhibition in vivo at 560 µmol/kg (Mus musculus [29]): 44.8%
3 | CC(=O)Oc1ccccc1C(=O)O [ASPIRIN] | -1.78 | -2.19 | -1.8 | – | – | – | – | 250 | 45.2 | –
